Where a name gives a salt, the structure may show the parent alone.
What was measured:
p38 MAP kinase = molecular target: T1, p38 MAP kinase (UniProt Q16539); test: Inhibition of p-38 (MAP) kinase in vitro assay (transfer of γ-33P from ATP to Myelin Basic Protein); format: biochemical; conditions: phosphorylated recombinant p38 MAP kinase, MBP substrate, γ-33P-ATP, 30° C.
T1 construct: fused on or other part: A His tag is implied by purification on a nickel column
Experimental: The p-38 MAP kinase inhibitory activity of compounds of this invention in vitro was determined by measuring the transfer of the y-phosphate from γ-^33P-ATP by p-38 kinase to Myelin Basic Protein (MBP), using the a minor modification of the method described in Ahn, N. G.; et al. J. of Biol. Chem. Vol. 266(7), 4220–4227, (1991)
The phosphorylated form of the recombinant p38 MAP kinase was expressed with SEK-1 and MEKK in E. Coli (see, Khokhlatchev, A. et al. J. of Biol. Chem. Vol. 272(17), 11057–11062, (1997) and then purified by affinity chromatography using a Nickel column.
The phosphorylated p38 MAP kinase was diluted in kinase buffer (20 mM 3-(N-morpholino)propanesulfonic acid, pH 7.2, 25 mM β-glycerol phosphate, 5 mM ethylene glycol-bis(beta-aminoethyl ether)-N,N,N′,N′-tetraacetic acid, 1 mM sodium vanadate, 1 mM dithiothreitol, 40 mM magnesium chloride). Test compound dissolved in DMSO or only DMSO (control) was added and the samples were incubated for 10 min. at 30° C. The kinase reaction was initiated by the addition of a substrate cocktail containing MBP and γ-^33P-ATP. After incubating for an additional 20 min. at 30° C., the reaction was terminated by adding 0.75% phosphoric acid. The phosphorylated MBP was then separated from the residual γ-^33P-ATP using a phosphocellulose membrane (Millipore, Bedfrod, Mass.) and quantitated using a scintillation counter (Packard, Meriden, Conn.).
The p-38 inhibitory activities (expressed as IC50, the concentration causing 50% inhibition of the p-38 enzyme being analyzed) of the compounds listed in Table 1 in the specification are between 0.01 μM and 10 μM.

Row | SMILES | melting point [°C] | IC50 (p38 MAP kinase) [nM]
1 | Cl.O=C(c1ccccc1)c1cc2cnc(NC3CCOCC3)nc2s1 [Compound 3] | 219.5 to 220.5 | 221
2 | Fc1ccc(Sc2cc3cnc(NC4CCOCC4)nc3s2)c(F)c1 [Compound 41, [6-(2,4-Difluorophenylsulfanyl)thieno[2,3-d]pyrimidin-2-yl]-(tetrahydropyran-4-yl)-amine] | – | 226
3 | Cn1c(Cc2ccccc2)cc2cnc(NC3CCCC3)nc21 [Compound 33, 2-(cyclopentylamino)-6-benzyl-7-methyl-pyrrolo[2,3-d]pyrimidine] | – | 135
4 | CS(=O)(=O)N1CCC(Nc2ncc3cc(C(O)c4ccccc4)sc3n2)CC1.Cl (centres unmarked) [Compound 23] | 152.2 to 162.1 | 128
5 | c1ccc(Cc2cc3cnc(NC4CCCC4)nc3o2)cc1 [Compound 30, 2-(cyclopentylamino)-6-benzyl-furano[2,3-d]pyrimidine] | – | 744
6 | O=C(c1cc2cnc(NC3CCOCC3)nc2s1)c1ccccc1F [Compound 9, 2-(tetrahydropyran-4-ylamino)-6-(2-fluorobenzoyl)thieno[2,3-d]pyrimidine] | 195.2 to 195.5 | –
7 | Fc1ccccc1Cc1cc2cnc(NC3CCOCC3)nc2s1 (as salt: hydrochloride) [Compound 25, 2-(tetrahydropyran-4-ylamino)-6-[(2-fluorophenyl)methyl]thieno[2,3-d]pyrimidine] | 217 to 219 | –
8 | O=C(c1ccccc1)c1cc2cnc(N[C@H]3CC[C@H](O)CC3)nc2s1 [Compound 1] | 102.6 to 103.8 | 104

Source: patent US7091347B2, “Bicyclic pyridine and pyrimidine p38 kinase inhibitors” (Roche Palo Alto LLC, priority 2002, dated 2006)
